# Measured values taken from PMC12362244, “Fidelity, specialization, and evolution of Paramecium PolX DNA polymerases involved in programmed double-strand break DNA repair” (Nucleic Acids Research, 2025).
# What was measured:
# PolXcΔNter = target: T1, PolXcΔNter (Paramecium tetraurelia, UniProt A0DCU7); test: gap-filling, FAM-primer urea-PAGE; format: biochemical; settings: gap with nick in template strand; 1 nM enzyme, 1 mM dGTP, 5 mM MgCl2, pH 7.5, 27°C
# T1 construct: gene GSPATT00015723001; lacks residues 1-266 (BRCT and linker); cleavable N-terminal 14-His tag; E. coli BL21 Star (DE3)
# T1 sequence (A0DCU7 267-608): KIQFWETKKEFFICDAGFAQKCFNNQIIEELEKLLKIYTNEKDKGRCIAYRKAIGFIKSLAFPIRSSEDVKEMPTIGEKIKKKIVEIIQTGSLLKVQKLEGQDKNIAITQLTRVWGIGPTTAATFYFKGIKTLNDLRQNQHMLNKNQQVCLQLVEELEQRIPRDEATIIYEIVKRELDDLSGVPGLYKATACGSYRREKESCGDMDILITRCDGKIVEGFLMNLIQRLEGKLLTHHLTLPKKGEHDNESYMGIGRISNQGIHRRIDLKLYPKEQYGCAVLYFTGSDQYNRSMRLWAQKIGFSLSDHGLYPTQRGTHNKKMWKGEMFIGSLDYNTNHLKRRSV
# HsPolλ = target: T2, HsPolλ (Homo sapiens, UniProt Q9UGP5); test: gap-filling, FAM-primer urea-PAGE; format: biochemical; settings: continuous template strand; 50 nM enzyme, 1 mM dGTP, 5 mM MgCl2, pH 7.5, 37°C
# T2 construct: gene POLL; wild type; cleavable N-terminal 14-His tag; E. coli
# T2 sequence (Q9UGP5 1-575): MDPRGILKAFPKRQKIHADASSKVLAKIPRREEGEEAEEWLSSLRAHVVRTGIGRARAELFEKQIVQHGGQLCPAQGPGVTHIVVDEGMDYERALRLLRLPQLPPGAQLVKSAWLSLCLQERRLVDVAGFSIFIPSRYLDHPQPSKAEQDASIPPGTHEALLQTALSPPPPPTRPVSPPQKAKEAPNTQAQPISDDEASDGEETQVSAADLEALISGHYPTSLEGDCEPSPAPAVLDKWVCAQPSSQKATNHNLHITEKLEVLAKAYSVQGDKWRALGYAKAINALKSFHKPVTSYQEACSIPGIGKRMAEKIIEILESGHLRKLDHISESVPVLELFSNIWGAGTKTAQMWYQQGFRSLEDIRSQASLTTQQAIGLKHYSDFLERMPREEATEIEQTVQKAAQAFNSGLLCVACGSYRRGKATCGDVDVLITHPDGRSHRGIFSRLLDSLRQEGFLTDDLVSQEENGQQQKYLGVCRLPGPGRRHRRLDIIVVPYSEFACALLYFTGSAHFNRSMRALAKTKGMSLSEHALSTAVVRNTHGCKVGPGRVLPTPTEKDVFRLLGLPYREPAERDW
structure (smiles),measurement,setting,value
Nc1nc2c(ncn2[C@H]2C[C@H](O)[C@@H](COP(=O)(O)OP(=O)(O)OP(=O)(O)O)O2)c(=O)[nH]1 [dGTP],"gap-filling, FAM-primer urea-PAGE",PolXcΔNter,"PolXaΔNter, PolXbΔNter, and PolXcΔNter displayed the highest apparent activity"
same,"gap-filling, FAM-primer urea-PAGE",HsPolλ,display gap-filling activity similar to hPolλ when using a continuous template strand
